± gives the standard deviation of the averaged measurements.

Compound in one assay: COc1cc(CCc2cc(NC(=O)c3ccc(N4CC(C)NC(C)C4)cc3)n[nH]2)cc(OC)c1 [AZD4547]
The assay is described as follows: surviving fraction relative to DMSO-only wells; higher = less growth inhibition. The settings on record: exposure time: 5 days. Put shortly: (§1)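 Tumour cell lines were seeded in log phase at 250–500 cells per well into 384-well plates. Starting 24 hours later, inhibitors were present continuously for five days at 0.5, 1, 5, 10, 50, 100, 500 and 1000 nM. Surviving fraction, from CellTiter-Glo luminescence, is normalised to the median of DMSO-only wells. Three screens per line were required, with replicate Pearson r >0.7 and median Z' >0.3 for a line to be kept.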

Compound in a further assay: CN(Cc1cnc2nc(N)nc(N)c2n1)c1ccc(C(=O)N[C@@H](CCC(=O)O)C(=O)O)cc1 [METHOTREXATE]
The description is as above. The settings on record: exposure time: 5 days. In outline: as §1

Consider HMT3552 BREAST, for which the surviving fraction with AZD4547 (0.5 nM) turned out to be 1.06; with AZD4547 (1 nM), 1.09; in the assay with AZD4547 (5 nM), 1.01; in the assay with AZD4547 (10 nM), 0.895; with AZD4547 (50 nM) it was 1.03; in the assay with AZD4547 (100 nM), 1.04. The surviving fraction was 0.852 in the assay with AZD4547 (500 nM); 0.888 with AZD4547 (1000 nM); 1.07 ± 0.063 with METHOTREXATE (0.5 nM); 1 ± 0.036 in the assay with METHOTREXATE (1 nM); 1.04 ± 0.069 in the assay with METHOTREXATE (5 nM); 1.03 ± 0.051 with METHOTREXATE (10 nM). The surviving fraction with METHOTREXATE (50 nM) came to 0.604 ± 0.06; with METHOTREXATE (100 nM) it was 0.282 ± 0.02; with METHOTREXATE (500 nM) it was 0.182 ± 0.0061; with METHOTREXATE (1000 nM), 0.171 ± 0.008.
Regarding HOS BONE, the surviving fraction came to 1 ± 0.027 with AZD4547 (0.5 nM); 1.04 ± 0.011 in the assay with AZD4547 (1 nM); 1.04 ± 0.037 in the assay with AZD4547 (5 nM); 1.1 ± 0.042 in the assay with AZD4547 (10 nM); 1 ± 0.019 in the assay with AZD4547 (50 nM); 0.987 ± 0.021 with AZD4547 (100 nM). Moreover, the surviving fraction is 0.9247 ± 0.0092 in the assay with AZD4547 (500 nM); 0.802 ± 0.039 in the assay with AZD4547 (1000 nM); 1.02 ± 0.036 with METHOTREXATE (0.5 nM); 0.999 ± 0.024 with METHOTREXATE (1 nM); 0.252 ± 0.018 with METHOTREXATE (5 nM); 0.223 ± 0.0095 with METHOTREXATE (10 nM). Moreover, the surviving fraction with METHOTREXATE (50 nM) is 0.232 ± 0.013; with METHOTREXATE (100 nM) it was 0.226 ± 0.0083; with METHOTREXATE (500 nM), 0.218 ± 0.01; with METHOTREXATE (1000 nM), 0.214 ± 0.018.
In the case of HOSMNG BONE, the surviving fraction with AZD4547 (0.5 nM) is 1.01 ± 0.088; with AZD4547 (1 nM) it was 0.996 ± 0.12; in the assay with AZD4547 (5 nM), 1.02 ± 0.1; with AZD4547 (10 nM) it was 1.03 ± 0.035; with AZD4547 (50 nM) it was 0.964 ± 0.12; with AZD4547 (100 nM), 0.9967 ± 0.0029. The surviving fraction with AZD4547 (500 nM) was 0.945 ± 0.087; with AZD4547 (1000 nM), 1.04 ± 0.097; with METHOTREXATE (0.5 nM), 0.844 ± 0.14; with METHOTREXATE (1 nM), 0.864 ± 0.049; in the assay with METHOTREXATE (5 nM), 0.84 ± 0.047; in the assay with METHOTREXATE (10 nM) it was 0.248 ± 0.019. In addition, the surviving fraction with METHOTREXATE (50 nM) stood at 0.212 ± 0.016; in the assay with METHOTREXATE (100 nM), 0.316 ± 0.011; with METHOTREXATE (500 nM) it was 0.341 ± 0.015; with METHOTREXATE (1000 nM), 0.353 ± 0.0087.
HS57T BREAST: the surviving fraction stood at 1.02 ± 0.051 with AZD4547 (0.5 nM); 1.01 ± 0.031 with AZD4547 (1 nM); 0.938 ± 0.04 in the assay with AZD4547 (5 nM); 0.829 ± 0.05 with AZD4547 (10 nM); 0.687 ± 0.029 with AZD4547 (50 nM); 0.744 ± 0.043 with AZD4547 (100 nM). The surviving fraction in the assay with AZD4547 (500 nM) was determined as 0.679 ± 0.035; in the assay with AZD4547 (1000 nM), 0.628 ± 0.045; in the assay with METHOTREXATE (0.5 nM) it was 1 ± 0.11; in the assay with METHOTREXATE (1 nM), 1.03 ± 0.075; with METHOTREXATE (5 nM), 1.03 ± 0.032; with METHOTREXATE (10 nM), 0.985 ± 0.12. Further, the surviving fraction came out at 0.252 ± 0.025 with METHOTREXATE (50 nM), 0.226 ± 0.013 in the assay with METHOTREXATE (100 nM), 0.205 ± 0.018 with METHOTREXATE (500 nM) and 0.214 ± 0.0081 in the assay with METHOTREXATE (1000 nM).
HS578T BREAST: the surviving fraction with AZD4547 (0.5 nM) is 0.986 ± 0.061; in the assay with AZD4547 (1 nM), 1.05 ± 0.06; in the assay with AZD4547 (5 nM) it was 1.04 ± 0.025; with AZD4547 (10 nM), 1.01 ± 0.04; in the assay with AZD4547 (50 nM), 0.966 ± 0.056; with AZD4547 (100 nM), 0.94 ± 0.036. In addition, the surviving fraction is 0.871 ± 0.03 with AZD4547 (500 nM); 0.911 ± 0.039 with AZD4547 (1000 nM); 1.04 ± 0.19 in the assay with METHOTREXATE (0.5 nM); 1.17 ± 0.17 with METHOTREXATE (1 nM); 1.19 ± 0.2 with METHOTREXATE (5 nM); 1.15 ± 0.058 with METHOTREXATE (10 nM). Also, the surviving fraction with METHOTREXATE (50 nM) amounted to 0.518 ± 0.069; in the assay with METHOTREXATE (100 nM), 0.438 ± 0.012; with METHOTREXATE (500 nM), 0.375 ± 0.011; with METHOTREXATE (1000 nM), 0.418 ± 0.011.

The record behind these values is the supplement of paper PMC6045584.
